This is an account of results in patent publication US20240139197A1, “INHIBITION OF KDM5A FOR PROMOTING ANTIGEN PRESENTATION, INCREASING CD8+ T CELL INFILTRATION AND BOOSTING ANTI-TUMOR IMMUNE RESPONSE” (The Wistar Institute of Anatomy and Biology, priority 2022, published 2024).

Format in all cases: cell-based, mouse
In one test the test system is ID8 cells. Nature of the test: cell viability by colony formation assay, ID8. Particulars: ID8, 10 μM, 8 days. The method, then: FIG. 2A-FIG. 2J show KDM5A inhibition suppresses tumor growth in vivo in an immune-competent mouse model of ovarian cancer. (FIG. 2A) Expression of Kdm5a, H3K4me3, and a loading control β-actin in doxycycline-inducible shKdm5a ID8 mouse EOC cells treated with or without 2 μg/mL of doxycycline. (FIG. 2B) ID8 cells were plated into 24 well plates and treated with 2 μg/mL of doxycycline the same day. Cells were incubated for 8 days. Relative cell viability was determined by colony formation assay. (FIG. 2C) Expression of Kdm5a, H3K4me3, and a loading control β-actin in ID8 cells treated with 10uM CPI-455 or vehicle control. (FIG. 2D) ID8 cells were plated into 24 well plates and incubated with 10 μM CPI-455 for 8 days with fresh drug-containing media every 3 days. Relative cell viability was determined by colony formation assay. (FIG. 2E) Ascites produced in C57BL/6 mice injected with doxycycline-inducible shKdm5a ID8 cells treated with control or doxycycline containing food. (FIG. 2F) Quantification of ascites volumes from FIG. 2E. (FIG. 2G) Kaplan-Meier survival curves for the indicated groups. […] (FIG. 21) Quantification of ascites volumes from FIG. 2H. […] Data represent mean±SEM of three biological repeats or 5 mice per group; P-value was calculated by using a two-tailed Student t test except in FIG. 2G and FIG. 2J by log rank tests. […]

The test system of the next test is H2-K1 in ID8 cells. Nature of the test: H2-K1 expression by RT-qPCR. Particulars: ID8, with IFNγ treatment. From the text: (§1) FIG. 4A-FIG. 4M show KDM5A regulates antigen processing and presentation pathway. (FIG. 4A) Experimental strategy used to identify Kdm5a direct target genes. […] (FIG. 4B) CUT&RUN tracks of the newly identified Kdm5a target gene H2-K1 for Kdm5a and H3K4me3 in ID8 cells. (FIG. 4C) Expression of H2-K1 in doxycycline-inducible shKdm5a ID8 cells, Kdm5a inhibitor CPI-455, or Kdm5a knockout cells with or without IFNγ stimulation determined by RT-qPCR. (FIG. 4D) Cell surface expression of H2-K1 in control and Kdm5a knockout ID8 cells with or without IFNy stimulation was determined by FACS analysis. (FIG. 4E) Quantification of FIG. 4D. (FIG. 4F) Cell surface expression of H2-K1 in control and doxycyclineinducible Kdm5a-knockdown ID8 cells with or without IFNγ stimulation was determined by FACS analysis. (FIG. 4G) Quantification of FIG. 4F. (FIG. 4H) Cell surface expression of H2-K1 in D8 cells treated with vehicle or CPI-455 with or without IFNγ stimulation was determined by FACS analysis. (FIG. 4I) Quantification of FIG. 4H; An isotype matched IgG was used as a negative control for all the FACS analysis. […] Data represent mean±SEM of three biological repeats; P-value was calculated by using a two-tailed Student t test except in FIG. 4L by using Pearson r analysis test and FIG. 4M by using Fisher's exact test. […]
Background: Real-time PCR tracks product formation cycle by cycle.

The next test has as its system H2-K1 on ID8 cells. Nature of the test: cell surface MHC class I H2-K1 by FACS, ID8. The note with it: ID8, in response to IFNγ.
Source text: as §1

The subject of test [1] is H2-K1 gene promoter in ID8 cells. As to the kind of experiment: ChIP at H2-K1 gene promoter. Particulars: ID8, IFNγ, anti-H3K4me3 ChIP.
Source text: as §1

Turning to CPI-455, the cell viability result in the test on ID8 cells is “did not affect cell viability”. In the test with H2-K1 in ID8 cells, the “expression of H2-K1” value was “upregulated”. Further, the “MHC class I presence on cell surface” value in the test with H2-K1 on ID8 cells is reported as “increased MHC class I presence on cell surface”. For the same substance, the “association of H3K4me3 with H2-K1 gene promoter” value in test [1] is “increased the association of H3K4me3”.
